Experiment [1] relates to IFNE1 gene in HCT116 xenografts. Nature of the experiment: Oligonucleotide microarray expression profiling of IFNE1 in HCT116 xenografts treated with P276-00 or Flavopiridol. The experiment is classed as in vivo, SCID mice. The protocol: (§1) Colon carcinoma (HCT-116) cells were injected into severe combined immunodeficient (SCID) mice intraperitoneally. Xenografts were allowed to grow, typically for 7 days until the tumors reached a size of 5×5 mm before therapeutic agent administration. A total of 56 animals were used for the study. Animals that were treated with two consecutive day administrations of the agent/vehicle were considered as the acute treated group. The acute treated group of animals consisted of 8 sham treated, 10 Flavopiridol (2.5 mg/kg) treated, and P276-00 (35 mg/kg) treated mice. A similar group of animals was treated with either vehicle or agent for 6-7 days consecutively and was considered as the chronic treated group, as discussed below. The differences in the concentrations used reflect the differences in the IC50 values of the two therapeutic agents.
(§2) At the end of the acute/chronic treatments, the xenografts were excised from the animals and RNA was prepared using Trizol reagent (Sigma, USA) as per the manufacturer's protocol. Briefly, xenograft tissues were homogenized under liquid nitrogen and resuspended in Trizol ([…] tissue) followed by chloroform extraction. The RNA was precipitated in isopropanol and the pellet was washed using 70% ethanol. RNA samples thus obtained were resuspended in RNase-DNase free water. Quality and quantity of RNA was measured by spectrometry using ND-1000 spectrometer (Nanodrop, Wilmington, Del., USA).
To account for variability in gene expression in the xenografts before agent treatments, RNA samples from the respective control groups were pooled proportionally. Each of the P276/FP acute treated xenograft was, therefore, compared with pooled acute control RNA samples and the same method was adopted for the chronically treated samples. For microarray hybridization, a total of 20 μg of RNA was used for cDNA synthesis, which was indirectly labeled with Cy3 (pooled control) or Cy5 (individual treated xenograft) fluorescent dyes as described (Chinnaiyan AM et. al., Am J. Pathol. 2001 October; 159(4): 1199-209). A 23,290 oligonucleotide array (Illumina, USA) was spotted using the OmniGrid™ Genemachines. The slides were processed by standard procedures and hybridization was performed in the two-channel mode. Post hybridization, the slides were washed and scanned using GeneTAC UC-4 and images obtained were analyzed using the GenePix Pro 5.1. The median of ratios of intensities (Cy5/Cy3) obtained from the two channels was subjected to Cluster analysis and viewed using the Treeview program. Median of ratios above 2 is considered as significant upregulation of the specific gene in the drug treated xenograft and a value below 0.5 is considered as downregulation of the specific gene in the drug treated xenograft.
A total of 16 hybridizations representing 10 acute treatments (FIG. 1A) and 6 chronic treatments (FIG. 1B) were analyzed. Individual hybridizations were numbered according to acute (A) or chronic (C) treatment followed by the animal number and the respective agent used. For example, A20 (P276) identifies acute treated xenograft with P276-00 in the animal numbered 20.
The values represent the log of median of ratio for IFNE1 gene across different xenografts treated with either P276-00 or Flavopiridol. As mentioned before, a ratio value above 1 indicates a two-fold increase in the gene levels. The Cluster analysis identifies upregulation of IFNE1 consistently across both acute (Table 1A) and chronic (Table 1B) treatments of HCT116 xenografts.

Experiment [2] has as its system IFNE1 gene expression in HCT116 xenografts. Nature of the experiment: Real Time Quantitative Reverse Transcriptase PCR of IFNE1 in HCT116 xenografts. The format is in vivo, SCID mice. To be noted: normalized to actin. The protocol: as §1, §2
IFNE1 expression in tumor tissues, after exposure to P276-00 or Flavopiridol, was further validated by RTQ-PCR. The primer sequences used for PCR analysis are as follows:
The actin (ACTB) gene is used as control for relative quantification, and the following primer sequences were used for its PCR analysis:
An aliquot of the RNA samples used for the microarray study was also used for Quantitative Real Time Reverse TRasncriptase PCR (QRT-PCR) analysis. […]

For experiment [3], the system named is IFNE1 mRNA in HCT116 cells. Nature of the experiment: QRT-PCR of IFNE1 level in HCT116 cells treated with P276-00 or Flavopiridol. The experiment is classed as cell-based, human. To be noted: for IFNE1 level relative to control untreated cells: at most time points (6, 12, 24 hours). On the procedure:
(§3) FIGS. 3A, 3B and 3C show expression of IFNE1 in different cancer cell lines treated with P276-00 and Flavopiridol. The different cell lines were treated with the agent for the indicated times and the level of IFNE1 mRNA were estimated using Real Time RT-PCR. Using the Actin gene for normalization, IFNE1 expression level was plotted as log fold change relative to the signal from the control untreated cells.
(§4) The expression of IFNE1 in response to P276-00 or Flavopiridol was also studied in different cancer cell lines such as HCT116, HL-60 (leukemia) and Calu-1. HCT116, Calu-1, H460 and HL-60 cells were obtained from ATCC and were maintained in culture medium with 10% fetal bovine serum. P276-00 and Flavopiridol were synthesized in-house and 10 mM stocks in DMSO were used for the assays. HCT116 (FIG. 3A) cells in culture were treated with P276-00 and Flavopiridol at 200 nM and 250 nM respectively for 6 hours, 12 hours and 24 hours. HL-60 (FIG. 3B) cells were treated with 300 nM of P276-00 and […] of Flavopiridol for 3 hours, 6 hours, 12 hours and 24 hours and Calu-1 (FIG. 3C) cells were treated with 1.2 μM of P276-00 and 450 nM of Flavopiridol for 4 hours, 8 hours, 12 hours, 24 hours and 48 hours. RNA was prepared from the samples and QRT-PCR was performed to estimate level of IFNE1.

The test system of experiment [4] is IFNE1 mRNA in Calu-1 cells. Nature of the experiment: QRT-PCR of IFNE1 level in Calu-1 cells treated with P276-00 or Flavopiridol. The experiment is classed as cell-based, human. To be noted: at most time points (4, 8, 12, 24, 48 hours). The protocol:
as §3, §4

Regarding `CN1CC[C@@H](c2c(O)cc(O)c3c(=O)cc(-c4ccccc4Cl)oc23)[C@@H]1CO.Cl` [Compound P276-00, (+)-trans-2-(2-Chloro-phenyl)-5,7-dihydroxy-8-(2-hydroxymethyl-1-methyl-pyrrolidin-3-yl)-chromen-4-one hydrochloride], the “log of median of ratio for IFNE1 gene” value is 2.26 in experiment [1] (acute treatment (two consecutive days), xenograft A20, P276-00 35 mg/kg, log base 2 of Cy5/Cy3 vs pooled control); 1.107 in experiment [1] (acute treatment, xenograft A2, P276-00 35 mg/kg, log base 2 vs pooled control); 1.966 in experiment [1] (acute treatment, xenograft A5, P276-00 35 mg/kg, log base 2 vs pooled control); 2.053 in experiment [1] (acute treatment, xenograft A11, P276-00 35 mg/kg, log base 2 vs pooled control); 3.252 in experiment [1] (acute treatment, xenograft A23, P276-00 35 mg/kg, log base 2 vs pooled control); 0.7715 in experiment [1] (chronic treatment (6-7 days consecutively), xenograft C17, P276-00, log base 2 vs pooled control). Besides, the “log of median of ratio for IFNE1 gene” value in experiment [1] (chronic treatment, xenograft C11, P276-00, log base 2 vs pooled control) stood at 1.318; in experiment [1] (chronic treatment, xenograft C23, P276-00, log base 2 vs pooled control) it was 1.326. The “xenografts with upregulated IFNE1 level by QRT-PCR” value in experiment [2] (acute treatment) is recorded as 3 of the 6; in experiment [2] (chronic treatment), “most of the xenografts tested”. Besides, the “IFNE1 level relative to control untreated cells” value in experiment [3] and in experiment [4] was “significant increase” in each case.
Take `CN1CC[C@H](c2c(O)cc(O)c3c(=O)cc(-c4ccccc4Cl)oc23)[C@H](O)C1` [Flavopiridol]: the “log of median of ratio for IFNE1 gene” value in experiment [1] (acute treatment, xenograft A3, Flavopiridol 2.5 mg/kg, log base 2 vs pooled control) was found to be 2.017; in experiment [1] (acute treatment, xenograft A6, Flavopiridol 2.5 mg/kg, log base 2 vs pooled control), 1.121; in experiment [1] (acute treatment, xenograft A9, Flavopiridol 2.5 mg/kg, log base 2 vs pooled control), 1.568; in experiment [1] (acute treatment, xenograft A15, Flavopiridol 2.5 mg/kg, log base 2 vs pooled control), 1.228; in experiment [1] (acute treatment, xenograft A22, Flavopiridol 2.5 mg/kg, log base 2 vs pooled control) it was 1.17; in experiment [1] (chronic treatment, xenograft C6, Flavopiridol, log base 2 vs pooled control) it was 2.731. Moreover, the “log of median of ratio for IFNE1 gene” value in experiment [1] (chronic treatment, xenograft C9, Flavopiridol, log base 2 vs pooled control) is 1.723; in experiment [1] (chronic treatment, xenograft C15, Flavopiridol, log base 2 vs pooled control), 1.595. Further, the “xenografts with IFNE1 up-regulation by QRT-PCR” value in experiment [2] (acute or chronic not distinguished) is on record as “most of the xenografts tested”. In addition, the “IFNE1 up-regulation, log fold change relative to control untreated cells” value in experiment [3] (12 hours, normalized to Actin) was “up to 7 log fold changes”. The “IFNE1 level relative to control untreated cells” value in experiment [3] and in experiment [4] was “significant increase” in each case.
